pIC50: −log10 of the molar value.
Experiments:
[1] = system: HCT116 (human colon cancer cell); test: MTT in vitro cytotoxicity, HCT116; format: cell-based; details: HCT-116, 72 hr incubation
Experimental: (§1) Materials and methods: MTT (3-[4,5-dimethylthiazol-2-yl]-diphenyl tetrazolium bromide) method was employed to determine the antiproliferative activity of all the compounds of the Examples and Contrasting Examples in vitro against selected cell lines, including HCT116 (human colon cancer cell), PC-3 (human prostate cancer), HepG2 (human hepatocellular carcinoma), SK-OV-3 (human ovarian adenocarcinoma), MCF-7 (human breast cancer), U87MG (human glioblastoma cell) cell lines.
(§2) Procedure: Human tumor cells of HCT116, PC-3, HepG2, SK-OV-3, MCF-7, and U87MG were in vitro cultured, and collected until the cells grow to the logarithmic phase. The cells were centrifuged for 5 minutes at 1000 rpm, and supernatant was discarded. Subsequently appropriate culture medium was added to suspend the precipitation, and the concentration of cells was adjusted to 3.5˜5.5×10^4/mL. the suspensions of cells were seeded in 96-well microplate at 100 μL per well, and incubated in incubator (37° C., 5% CO2) for 24 hr. The compound to test was added. For the control group, equivalent concentration of DMSO (final concentration 0.5%) was added. For each group, three copy wells were set. After incubated for 72 hr, 20 μL 5 mg/mL of MTT was added into each well, and placed at 37° C. for 3 hr. 150 μL of DMSO was added into each wells, and vibrated the shaker at 37° C. for 5 mins, then measured the absorbance (OD) value at 492 nm/620 nm. The IC50 values were calculated using Prism 5.0 software.

[2] = system: MCF-7 (human breast cancer); test: MTT in vitro cytotoxicity, MCF-7; format: cell-based; details: MCF7, 72 hr incubation
Experimental: as §1, §2

[3] = system: HepG2 (human hepatocellular carcinoma); test: MTT in vitro cytotoxicity, HepG2; format: cell-based; details: 72 hr incubation
Experimental: as §1, §2

[4] = system: PC-3 (human prostate cancer); test: MTT in vitro cytotoxicity, PC-3; format: cell-based; details: 72 hr incubation, read-out: IC50 PC3
Experimental: as §1, §2

[5] = system: U87MG (human glioblastoma cell); test: MTT in vitro cytotoxicity, U87MG; format: cell-based; details: U-87 MG, 72 hr incubation
Experimental: as §1, §2

tumor cells (U87MG) = test: Assay for inhibiting cancer cell clone formation (soft agar); format: cell-based, human; details: concentration range from 0.020 to 0.090 μM, 10-14 days
Experimental: Materials and methods: The tested tumor cells (U87MG) in the logarithmic phase were digested with 0.25% trypsin then percussed gently to the single cell state, and counted the live cells. The cells density was adjusted to 1×10^6[…] with DMEM containing 20% fetal bovine serum, and then diluted gradiently according to the experiment requirement.
Two concentrations (1.2% and 0.7%) of low melting point agarose fluid were prepared with distilled water respectively. A mixture of 1.2% agarose fluid and 2×DMEM medium (contains 2× antibiotics and 20% calf serum) was prepared in 1:1 ratio, then transferred (3 mL) into 6 cm diameter flat dishes, cooled to solidification to furnish the bottom agar which was stored in a CO2 incubator. The cell suspension (0.2 mL) was added to a mixture of 0.7% agarose and 2×DMEM medium which was prepared in 1:1 ratio in sterile tubes, and thoroughly mixed before injection to the precoated dishes to form the double layer agar. After the upper agar being solidified, the dishes were incubated in 37° C. and 5% CO2 for 10-14 days, each experiment was performed in 3-6 times.
The number of clones was counted under an inverted microscope. The clone formation rate was calculated.

[6] = system: SK-OV-3 (human ovarian adenocarcinoma); test: MTT in vitro cytotoxicity, SK-OV-3; format: cell-based; details: 72 hr incubation
Experimental: as §1, §2

[7] = Body weight in U87MG tumor-bearing mice; format: in vivo, BALB/c nude mice; details: oral qd × 5/w
Experimental: (§3) Animals: Female 6-8 weeks BALB/c nude mice weighed 16 to 18 g. They were raised at SPF-level animal room with a 12 h light-dark cycle; drinking and eating were provided ad libitum.
(§4) Under aseptic conditions, U87MG cells in the logarithmic phase were digested and its density was adjusted. U87MG cells were inoculated hypodermically in BALB/c nude mice, 0.1 mL for each mouse. The diameter of the transplantation was measured with a Vernier caliper. After their tumor size was about 100-200 mm^3, 36 mice were randomly divided into 5 groups according to the tumor size. The mice of each group was orally administered the dose respectively according to the above-mentioned schedule, and the mice of the vehicle group were given same dose of saline. The first day of dosing named for D1. The long diameter and short diameter of the tumor size of each mouse were measured twice a week, and the body weights were recorded at the same time.
(§5) Indicators for antitumor efficacy evaluation including: relative tumor inhibition rate, body weight, general state of the mice and related toxicity index. Curves of tumor growth and body weight change of every group were plotted at the end of the experiment.

U87MG cells = test: In vivo antitumor activity test, U87MG subcutaneous xenograft; design: species or system BALB/c nude mice; details: oral qd × 5/w; for tumor inhibition rate (IR): 10 doses, by tumor weight
Experimental: as §3, §4
Indicators were observed, measured, and recorded from the first day of dosing. The tumor size was measured using a Vernier caliper to calculate tumor volume change and the tumor growth. After the tumor-burdened mice were executed and dissected, the tumor tissues were separated, and weighed.
as §5
The calculation formula for tumor volume (TV) is: TV=½×a×b^2, where a and b means long diameter and short diameter of the tumor size respectively.
Tumor inhibition rate IR (%)=(1−TTW/CTW)×100%, TTW: TW of the treatment group; CTW: TW of the control group.
Statistical analysis: Data were analyzed using SPSS 11.0 with Student t-test for comparisons and ANOVA. P-values <0.05 were considered significant.

SMILES	pIC50 [1]	pIC50 [3]	pIC50 [4]	pIC50 [5]	inhibition of glioma cell clone formation (tumor cells (U87MG))	pIC50 [6]	further results
CN(C)CCN1C(=O)c2c3cc(Br)ccc3nc3cccc1c23 [Compound 7a, 9-bromo-2-(2-(dimethylamino)ethyl)pyrrolo[2,3,4-kl]acridin-1-(2H)-one]	5.73	5.73					pIC50 [2]: 5.70
CN(C)CCCN1C(=O)c2c3cc(Br)ccc3nc3cccc1c23 [Compound 7b, 9-bromo-2-(3-(dimethylamino)propyl)pyrrolo[2,3,4-kl]acridin-1-(2H)-one]	5.64	5.42					pIC50 [2]: 5.67
CN(C)CCN1C(=O)c2c3cc(Cl)ccc3nc3cccc1c23 [Compound 2b, 9-chloro-2-(2-(dimethylamino)ethyl)pyrrolo[2,3,4-kl]acridin-1-(2H)-one]	6.07	5.97	5.91	5.84	significantly inhibited		
O=C1c2c3ccccc3nc3cccc(c23)N1CCN1CCCCC1 [Compound 1f, 2-(2-(piperidin-1-yl)ethyl)pyrrolo[2,3,4-kl]acridin-1-(2H)-one]	5.95	5.64	5.50	5.41		5.44	
CN(C)CCCN1C(=O)c2c3cc(I)ccc3nc3cccc1c23 [Compound 7d, 2-(3-(dimethylamino)propyl)-9-iodopyrrolo[2,3,4-kl]acridin-1-(2H)-one]	5.58	5.42					pIC50 [2]: 5.55
O=C1c2c3ccccc3nc3cccc(c23)N1CCCN1CCCC1 [Compound 1h, 2-(3-(pyrrolidin-1-yl)propyl)pyrrolo[2,3,4-kl]acridin-1-(2H)-one]	5.74	5.09	4.92	4.99		4.92	
CCCCN1C(=O)c2c3ccccc3nc3cccc1c23 [Compound 6a, 2-butylpyrrolo[2,3,4-kl]acridin-1-(2H)-one, reference compound]	< 4.30	< 4.30	< 4.30	< 4.30		< 4.30	
Cc1ccc2c3c(c4cccc(F)c4nc13)C(=O)N2CCN(C)C [Compound 5d, 2-(2-(dimethylamino)ethyl)-7-fluoro-5-methylpyrrolo[2,3,4-kl]-acridin-1-(2H)-one]	6.00	5.76	5.60	5.85	significantly inhibited		
CN(C)CCN1C(=O)c2c3ccccc3nc3cccc1c23 [Compound 1a, 2-(2-(dimethylamino)ethyl)pyrrolo[2,3,4-kl]acridin-1-(2H)-one]	5.13	5.20	4.84	6.24		4.83	
O=C1c2c3ccccc3nc3cccc(c23)N1CCN1CCCC1 [Compound 1g, 2-(2-(pyrrolidin-1-yl)ethyl)pyrrolo[2,3,4-kl]acridin-1-(2H)-one]	6.02	5.67	5.40			5.19	
Cn1nnc2c(C(N)=O)ncn2c1=O [TMZ, Temozolomide, reference compound]							animal weight compared with the vehicle ([7]; 50 mg/kg): significant lower compared with the vehicle
O=C1c2c3ccccc3nc3cccc(c23)N1c1ccccc1 [Compound 6b, 2-phenylpyrrolo[2,3,4-kl]acridin-1-(2H)-one, reference compound]	< 4.30	< 4.30	< 4.30	< 4.30		< 4.30	
CN(C)CCN1C(=O)c2c3cccc(F)c3nc3cccc1c23 [Compound 2d, 2-(2-(dimethylamino)ethyl)-7-fluoropyrrolo[2,3,4-kl]acridin-1-(2H)-one]	6.02	5.85	5.73	5.77	significantly inhibited		
Cc1ccc2nc3c(C)ccc4c3c(c2c1)C(=O)N4CCN(C)C [Compound 5a, 2-(2-(dimethylamino)ethyl)-5,9-dimethylpyrrolo[2,3,4-kl]-acridin-1-(2H)-one]	5.97	5.71	5.54	5.83	significantly inhibited		
O=C1c2c3ccccc3nc3cccc(c23)N1CCCN1CCOCC1 [Compound 1b, 2-(3-morpholinopropyl)pyrrolo[2,3,4-kl]acridin-1-(2H)-one]	5.73	5.56	5.52	5.75		5.07	
Cc1ccc2c3c(c4ccccc4nc13)C(=O)N2CCN(C)C [Compound 5e, 2-(2-(dimethylamino)ethyl)-5-methylpyrrolo[2,3,4-kl]-acridin-1-(2H)-one]	6.12	5.89	5.78	6.02	significantly inhibited		
COc1ccc2nc3c(C)ccc4c3c(c2c1)C(=O)N4CCN(C)C.O=C(O)/C=C/C(=O)O [Compound 5c′, 2-(2-(dimethylamino)ethyl)-9-methoxy-5-methylpyrrolo[2,3,4-kl]-acridin-1-(2H)-one fumarate]					significantly inhibited		tumor size compared with the vehicle (U87MG cells; high dose group (80 mg/kg)): significantly smaller than the vehicle; tumor inhibition rate (IR) (U87MG cells; high dose group (80 mg/kg)): 91%; tumor size compared with the vehicle (U87MG cells; median dose group (40 mg/kg)): significantly smaller than the vehicle; tumor inhibition rate (IR) (U87MG cells; median dose group (40 mg/kg)): 69%; animal weight compared with the vehicle ([7]; high dose group (80 mg/kg)): grew slowly compared with the vehicle; animal weight loss compared with the positive control (TMZ) group ([7]; high dose group (80 mg/kg)): significantly lower than the positive control; animal weight compared with the vehicle ([7]; median dose group (40 mg/kg)): grew slowly compared with the vehicle
CN(C)CCCN1C(=O)c2c3cc(Cl)ccc3nc3cccc1c23.O=C(O)/C=C/C(=O)O [Compound 3b′, 9-chloro-2-(3-(dimethylamino)propyl)pyrrolo[2,3,4-kl]acridin-1-(2H)-one fumarate]					significantly inhibited		
Cc1ccc2c3c(c4cc(Cl)ccc4nc13)C(=O)N2CCN(C)C [Compound 5b, 9-chloro-2-(2-(dimethylamino)ethyl)-5-methylpyrrolo[2,3,4-kl]-acridin-1-(2H)-one]	6.03	5.93	5.65	5.90	significantly inhibited		
